Source: PubChem BioAssay AID1259407 (Chemical Carcinogenesis Research Information System (CCRIS), 2018)
Active and inactive are the calls of the source. No rule for the calls is given here.

Test system: CCRIS mutagenicity, Ames/micronucleus/aberration tests
Experiment: CCRIS mutagenicity studies
[1] = Test System: AMES SALMONELLA TYPHIMURIUM, Strain/Indicator: TA98, Metabolic Activation: NONE, Method: PREINCUBATION
[2] = Test System: AMES SALMONELLA TYPHIMURIUM, Strain/Indicator: TA98, Metabolic Activation: RAT, LIVER, S-9, PCB, Method: PREINCUBATION
[3] = Test System: AMES SALMONELLA TYPHIMURIUM, Strain/Indicator: TA100, Metabolic Activation: NONE, Method: PREINCUBATION
[4] = Test System: AMES SALMONELLA TYPHIMURIUM, Strain/Indicator: TA100, Metabolic Activation: RAT, LIVER, S-9, PCB, Method: PREINCUBATION
[5] = Test System: AMES SALMONELLA TYPHIMURIUM, Strain/Indicator: TA1535, Metabolic Activation: NONE, Method: PREINCUBATION
[6] = Test System: AMES SALMONELLA TYPHIMURIUM, Strain/Indicator: TA1537, Metabolic Activation: NONE, Method: PREINCUBATION

`CC(C)Sc1cc(Cc2ccc(N)c(SC(C)C)c2)ccc1N` was tested, and the mutagenic call [1] was “inactive; negative”, the mutagenic call [2] was “active; positive” and the mutagenic call [3] was “inactive; negative”. For the same compound, the mutagenic call [4] was “active; positive”.
In the case of `FC(F)(Br)C(F)(F)I`, the mutagenic call (Test System: Ames Salmonella typhimurium, Strain/Indicator: TA98, Metabolic Activation: None, Method: Preincubation) is reported as “inactive; negative”, the mutagenic call (Test System: Ames Salmonella typhimurium, Strain/Indicator: TA98, Metabolic Activation: Rat, Liver, S9, Sodium phenobarbital and 5,6-benzoflavone (10%), Method: Preincubation) is reported as “inactive; negative” and the mutagenic call (Test System: Ames Salmonella typhimurium, Strain/Indicator: TA100, Metabolic Activation: None, Method: Preincubation) is reported as “inactive; negative”. The mutagenic call (Test System: Ames Salmonella typhimurium, Strain/Indicator: TA100, Metabolic Activation: Rat, Liver, S9, Sodium phenobarbital and 5,6-benzoflavone (10%), Method: Preincubation) was “inactive; negative”, the mutagenic call (Test System: Ames Salmonella typhimurium, Strain/Indicator: TA1535, Metabolic Activation: None, Method: Preincubation) was “active; positive” and the mutagenic call (Test System: Ames Salmonella typhimurium, Strain/Indicator: TA1535, Metabolic Activation: Rat, Liver, S9, Sodium phenobarbital and 5,6-benzoflavone (10%), Method: Preincubation) was “active; positive”. For the same compound, the mutagenic call (Test System: Ames Salmonella typhimurium, Strain/Indicator: TA1537, Metabolic Activation: None, Method: Preincubation) was “inactive; negative”, the mutagenic call (Test System: Ames Salmonella typhimurium, Strain/Indicator: TA1537, Metabolic Activation: Rat, Liver, S9, Sodium phenobarbital and 5,6-benzoflavone (10%), Method: Preincubation) was “inactive; negative” and the mutagenic call (Test System: E. coli, Strain/Indicator: WP2uvrA/pKM101, Metabolic Activation: None, Method: Preincubation) was “active; positive”. The mutagenic call (Test System: E. coli, Strain/Indicator: WP2uvrA/pKM101, Metabolic Activation: Rat, Liver, S9, Sodium phenobarbital and 5,6-benzoflavone (10%), Method: Preincubation) was “active; positive”.
`C[C@]12CC[C@@H]3c4ccc(O)cc4CC[C@H]3[C@@]13CC[C@]2(O)[C@H](O)C3` was tested, and the mutagenic call (End Point: IN VITRO CHROMOSOMAL ABERRATIONS, Test System: HUMAN PERIPHERAL LYMPHOCYTES, Metabolic Activation: NONE) was “inactive; negative”, the mutagenic call (End Point: IN VITRO CHROMOSOMAL ABERRATIONS, Test System: HUMAN PERIPHERAL LYMPHOCYTES, Metabolic Activation: RAT, LIVER, S-9, AROCLOR 1254) was “inactive; negative” and the mutagenic call [1] was “inactive; negative”. For the same compound, the mutagenic call (Test System: AMES SALMONELLA TYPHIMURIUM, Strain/Indicator: TA98, Metabolic Activation: NONE, Method: STANDARD PLATE) was “inactive; negative”, the mutagenic call (Test System: AMES SALMONELLA TYPHIMURIUM, Strain/Indicator: TA98, Metabolic Activation: RAT, LIVER, S-9, AROCLOR 1254, Method: PREINCUBATION) was “inactive; negative” and the mutagenic call (Test System: AMES SALMONELLA TYPHIMURIUM, Strain/Indicator: TA98, Metabolic Activation: RAT, LIVER, S-9, AROCLOR 1254, Method: STANDARD PLATE) was “inactive; negative”. For the same compound, the mutagenic call [3] was “inactive; negative”, the mutagenic call (Test System: AMES SALMONELLA TYPHIMURIUM, Strain/Indicator: TA100, Metabolic Activation: NONE, Method: STANDARD PLATE) was “inactive; negative” and the mutagenic call (Test System: AMES SALMONELLA TYPHIMURIUM, Strain/Indicator: TA100, Metabolic Activation: RAT, LIVER, S-9, AROCLOR 1254, Method: PREINCUBATION) was “inactive; negative”. The mutagenic call (Test System: AMES SALMONELLA TYPHIMURIUM, Strain/Indicator: TA100, Metabolic Activation: RAT, LIVER, S-9, AROCLOR 1254, Method: STANDARD PLATE) was “inactive; negative”, the mutagenic call [5] was “inactive; negative” and the mutagenic call (Test System: AMES SALMONELLA TYPHIMURIUM, Strain/Indicator: TA1535, Metabolic Activation: NONE, Method: STANDARD PLATE) was “inactive; negative”. The mutagenic call (Test System: AMES SALMONELLA TYPHIMURIUM, Strain/Indicator: TA1535, Metabolic Activation: RAT, LIVER, S-9, AROCLOR 1254, Method: PREINCUBATION) was “inactive; negative”, the mutagenic call (Test System: AMES SALMONELLA TYPHIMURIUM, Strain/Indicator: TA1535, Metabolic Activation: RAT, LIVER, S-9, AROCLOR 1254, Method: STANDARD PLATE) was “inactive; negative” and the mutagenic call [6] was “inactive; negative”. The mutagenic call (Test System: AMES SALMONELLA TYPHIMURIUM, Strain/Indicator: TA1537, Metabolic Activation: NONE, Method: STANDARD PLATE) was “inactive; negative”, the mutagenic call (Test System: AMES SALMONELLA TYPHIMURIUM, Strain/Indicator: TA1537, Metabolic Activation: RAT, LIVER, S-9, AROCLOR 1254, Method: PREINCUBATION) was “inactive; negative” and the mutagenic call (Test System: AMES SALMONELLA TYPHIMURIUM, Strain/Indicator: TA1537, Metabolic Activation: RAT, LIVER, S-9, AROCLOR 1254, Method: STANDARD PLATE) was “inactive; negative”. For the same compound, the mutagenic call (Test System: AMES SALMONELLA TYPHIMURIUM, Strain/Indicator: TA1538, Metabolic Activation: NONE, Method: PREINCUBATION) was “inactive; negative”, the mutagenic call (Test System: AMES SALMONELLA TYPHIMURIUM, Strain/Indicator: TA1538, Metabolic Activation: NONE, Method: STANDARD PLATE) was “inactive; negative” and the mutagenic call (Test System: AMES SALMONELLA TYPHIMURIUM, Strain/Indicator: TA1538, Metabolic Activation: RAT, LIVER, S-9, AROCLOR 1254, Method: PREINCUBATION) was “inactive; negative”. For the same compound, the mutagenic call (Test System: AMES SALMONELLA TYPHIMURIUM, Strain/Indicator: TA1538, Metabolic Activation: RAT, LIVER, S-9, AROCLOR 1254, Method: STANDARD PLATE) was “inactive; negative”, the mutagenic call (Test System: CHINESE HAMSTER V-79, Strain/Indicator: V-79 (HGPRT)/6-THIOGUANINE, Metabolic Activation: NONE) was “inactive; negative” and the mutagenic call (Test System: CHINESE HAMSTER V-79, Strain/Indicator: V-79 (HGPRT)/6-THIOGUANINE, Metabolic Activation: RAT, LIVER, S-9, AROCLOR 1254) was “inactive; negative”.
In the case of `C1COCCN1`, the mutagenic call [1] is reported as “inactive; negative”, the mutagenic call (Test System: AMES SALMONELLA TYPHIMURIUM, Strain/Indicator: TA98, Metabolic Activation: RAT LIVER S-9, PHENOBARBITAL AND BETA-NAPHTHOFLAVONE, Method: PREINCUBATION) is reported as “inactive; negative” and the mutagenic call [2] is reported as “inactive; negative”. The mutagenic call [3] was “inactive; negative”, the mutagenic call (Test System: AMES SALMONELLA TYPHIMURIUM, Strain/Indicator: TA100, Metabolic Activation: RAT LIVER S-9, PHENOBARBITAL AND BETA-NAPHTHOFLAVONE, Method: PREINCUBATION) was “inactive; negative” and the mutagenic call [4] was “inactive; negative”. For the same compound, the mutagenic call [5] was “inactive; negative”, the mutagenic call (Test System: AMES SALMONELLA TYPHIMURIUM, Strain/Indicator: TA1535, Metabolic Activation: RAT LIVER S-9, PHENOBARBITAL AND BETA-NAPHTHOFLAVONE, Method: PREINCUBATION) was “inactive; negative” and the mutagenic call [6] was “inactive; negative”. For the same compound, the mutagenic call (Test System: AMES SALMONELLA TYPHIMURIUM, Strain/Indicator: TA1537, Metabolic Activation: RAT LIVER S-9, PHENOBARBITAL AND BETA-NAPHTHOFLAVONE, Method: PREINCUBATION) was “inactive; negative”, the mutagenic call (Test System: E.COLI, Strain/Indicator: WP2UVRA, Metabolic Activation: NONE, Method: PREINCUBATION) was “inactive; negative” and the mutagenic call (Test System: E.COLI, Strain/Indicator: WP2UVRA, Metabolic Activation: RAT LIVER S-9, PHENOBARBITAL AND BETA-NAPHTHOFLAVONE, Method: PREINCUBATION) was “inactive; negative”.
For `COc1cc2c3c(c1OC)-c1cc4c(cc1C[C@@H]3N(C)CC2)OCO4`, the mutagenic call (Test System: AMES SALMONELLA TYPHIMURIUM, Strain/Indicator: TA98, Metabolic Activation: RAT, LIVER, S-9, PHENOBARBITAL AND BETA-NAPHTHOFLAVONE, Method: PREINCUBATION) was “active; positive” and the mutagenic call (Test System: AMES SALMONELLA TYPHIMURIUM, Strain/Indicator: TA100, Metabolic Activation: RAT, LIVER, S-9, PHENOBARBITAL AND BETA-NAPHTHOFLAVONE, Method: PREINCUBATION) was “active; positive”.
